Key:
Assay in all cases: relative viability (nuclei count vs DMSO), 5 days (fraction); higher = more cells survive
AZ628 + Tozasertib = compound: CC1=C(C=C(C=C1)NC(=O)C2=CC(=CC=C2)C(C)(C)C#N)NC3=CC4=C(C=C3)N=CN(C4=O)C [AZ628] + Cc1cc(Nc2cc(N3CCN(C)CC3)nc(Sc3ccc(NC(=O)C4CC4)cc3)n2)n[nH]1 [Tozasertib] (partner 0.1 µM)
How it was run: (§1)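 For relative viability, nuclei counts in treated wells were divided by those in vehicle wells. Lung cancer cell lines had been pin-tool dosed in 1536-well plates the day after seeding and cultured for 5 days, then fixed and stained in one step (final 0.05% Triton X-100, 1% formaldehyde, 1 ug/ml Hoechst) and imaged at 4×. Doses were one drug alone or a fixed anchor-drug dose plus five library-drug doses (not always all listed) in √10 steps, and values are duplicate-plate medians.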

QS11 + Pictilisib = compound: C1CC2=C(C1)C=C(C=C2)OC3=NC(=C4C(=N3)N(C=N4)CC5=CC=C(C=C5)C6=CC=CC=C6)N[C@@H](CC7=CC=CC=C7)CO [QS11] + CS(=O)(=O)N1CCN(Cc2cc3nc(-c4cccc5[nH]ncc45)nc(N4CCOCC4)c3s2)CC1 [Pictilisib] (partner 1 µM)
How it was run: as §1

QS11 + Linsitinib = compound: C1CC2=C(C1)C=C(C=C2)OC3=NC(=C4C(=N3)N(C=N4)CC5=CC=C(C=C5)C6=CC=CC=C6)N[C@@H](CC7=CC=CC=C7)CO [QS11] + C[C@]1(O)C[C@@H](c2nc(-c3ccc4ccc(-c5ccccc5)nc4c3)c3c(N)nccn32)C1 [Linsitinib] (partner 1 µM)
How it was run: as §1

AZ628 + Navitoclax = compound: CC1=C(C=C(C=C1)NC(=O)C2=CC(=CC=C2)C(C)(C)C#N)NC3=CC4=C(C=C3)N=CN(C4=O)C [AZ628] + CC1(C)CCC(c2ccc(Cl)cc2)=C(CN2CCN(c3ccc(C(=O)NS(=O)(=O)c4ccc(N[C@H](CCN5CCOCC5)CSc5ccccc5)c(S(=O)(=O)C(F)(F)F)c4)cc3)CC2)C1 [Navitoclax] (partner 0.5 µM)
How it was run: as §1

LCLC-97TM1
relative viability (AZ628 + Tozasertib; first compound 0.08 µM): 0.239 | relative viability (AZ628 + Tozasertib; first compound 0.253 µM): 0.202 | relative viability (AZ628 + Tozasertib; first compound 0.8 µM): 0.235 | relative viability (AZ628 + Tozasertib; first compound 2.53 µM): 0.211 | relative viability (AZ628 + Tozasertib; first compound 8 µM): 0.167 | relative viability (QS11 + Pictilisib; first compound 0.08 µM): 0.14 | relative viability (QS11 + Pictilisib; first compound 0.253 µM): 0.193 | relative viability (QS11 + Pictilisib; first compound 0.8 µM): 0.209 | relative viability (QS11 + Pictilisib; first compound 2.53 µM): 0.302 | relative viability (QS11 + Pictilisib; first compound 8 µM): 0.289 | relative viability (QS11 + Linsitinib; first compound 0.08 µM): 0.15 | relative viability (QS11 + Linsitinib; first compound 0.253 µM): 0.17 | relative viability (QS11 + Linsitinib; first compound 0.8 µM): 0.233 | relative viability (QS11 + Linsitinib; first compound 2.53 µM): 0.237 | relative viability (QS11 + Linsitinib; first compound 8 µM): 0.293 | relative viability (AZ628 + Navitoclax; first compound 0.08 µM): 0.86 | relative viability (AZ628 + Navitoclax; first compound 0.253 µM): 0.436 | relative viability (AZ628 + Navitoclax; first compound 0.8 µM): 0.48 | relative viability (AZ628 + Navitoclax; first compound 2.53 µM): 0.437 | relative viability (AZ628 + Navitoclax; first compound 8 µM): 0.255
